Consider 23 compounds from patent publication US20230117592A1 (SRI International, priority 2019, published 2023).

For experiment [1], the target named is T1, 5-LOX (Homo sapiens, UniProt P09917).
T1 sequence (P09917 1-674): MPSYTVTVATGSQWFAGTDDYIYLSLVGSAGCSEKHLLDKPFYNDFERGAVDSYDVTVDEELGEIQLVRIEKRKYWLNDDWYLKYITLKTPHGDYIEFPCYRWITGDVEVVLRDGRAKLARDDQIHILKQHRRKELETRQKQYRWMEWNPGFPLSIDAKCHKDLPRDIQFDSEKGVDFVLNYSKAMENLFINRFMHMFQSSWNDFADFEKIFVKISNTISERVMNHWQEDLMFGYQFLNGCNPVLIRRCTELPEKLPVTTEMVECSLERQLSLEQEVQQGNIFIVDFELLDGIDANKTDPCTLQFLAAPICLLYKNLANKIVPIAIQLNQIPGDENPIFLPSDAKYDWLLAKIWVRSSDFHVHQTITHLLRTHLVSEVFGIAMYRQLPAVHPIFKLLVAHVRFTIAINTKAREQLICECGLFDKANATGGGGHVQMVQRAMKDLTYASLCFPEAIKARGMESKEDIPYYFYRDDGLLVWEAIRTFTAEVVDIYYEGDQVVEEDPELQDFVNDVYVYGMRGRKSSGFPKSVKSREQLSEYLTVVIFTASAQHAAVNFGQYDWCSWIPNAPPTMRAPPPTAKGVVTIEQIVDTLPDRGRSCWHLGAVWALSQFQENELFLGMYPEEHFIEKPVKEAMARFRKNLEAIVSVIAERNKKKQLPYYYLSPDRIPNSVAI
Briefly: 5-LOX fluorescent assay (in vitro lipoxygenase inhibition). In kind it is biochemical. The settings on record: recombinant 5-LOX cell lysate, 20 μM AA, DHR123 fluorescence; several values in a cell = repeat determinations; read-out: IC50 (μM) values for in vitro lipoxygenase inhibition, 5-LOX. The method, then: 5-LOX FI assay Fluorescent Assay
The enzyme assay (100 μL) contained 50 mM Tris, pH 7.5, 0.1 mM EDTA, 0.3 mM CaCl2, 20 μM AA, 100 μM ATP, 1 μM DHR123, and recombinant 5-LOX cell lysate (0.5 μL/100 μL). Inhibitors (dissolved in DMSO) were plated at 1 μL into 96-well assay microplates followed by a 40 μL addition of a solution containing 5-LOX enzyme. Enzyme was pre-incubated with compounds for 15 mins. The assay was initiated by the addition of a 40 μL substrate solution containing AA and ATP, and 20 μL addition of a solution containing DHR123. […] Percent inhibition was calculated for each compound dose for IC50 curve fitting using 4 Parameter Logistic Model or Sigmoidal Dose-Response Model.

In experiment [2] the target is T2, 12-LOX (Homo sapiens, UniProt P18054).
T2 sequence (P18054 1-663): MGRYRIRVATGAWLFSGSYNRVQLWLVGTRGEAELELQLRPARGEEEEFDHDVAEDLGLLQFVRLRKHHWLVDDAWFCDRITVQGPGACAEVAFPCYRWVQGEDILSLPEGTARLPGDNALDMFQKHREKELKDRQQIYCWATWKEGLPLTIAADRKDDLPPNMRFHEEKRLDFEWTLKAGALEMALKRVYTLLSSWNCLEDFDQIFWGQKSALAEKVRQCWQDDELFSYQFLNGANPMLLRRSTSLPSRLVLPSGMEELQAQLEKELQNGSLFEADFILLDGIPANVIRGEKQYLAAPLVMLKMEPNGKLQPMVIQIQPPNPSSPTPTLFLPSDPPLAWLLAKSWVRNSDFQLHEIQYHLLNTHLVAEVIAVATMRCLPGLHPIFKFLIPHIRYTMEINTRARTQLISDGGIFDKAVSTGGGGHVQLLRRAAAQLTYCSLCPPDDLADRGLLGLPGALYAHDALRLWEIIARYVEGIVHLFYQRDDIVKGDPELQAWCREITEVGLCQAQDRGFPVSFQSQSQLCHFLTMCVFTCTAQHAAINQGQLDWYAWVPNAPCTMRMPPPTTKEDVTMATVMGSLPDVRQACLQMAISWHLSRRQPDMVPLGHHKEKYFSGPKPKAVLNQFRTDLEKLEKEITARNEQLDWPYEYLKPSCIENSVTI
Briefly: 12-LOX fluorescent assay (in vitro lipoxygenase inhibition). In kind it is biochemical. On the procedure: 12-LOX/15-LOX Fluorescent Assay
The enzyme assay (100 ul) contained 50 mM Tris, pH 7.5, 0.05% Tween-20, 20 μM AA/LA, 1 μM DHR123, and 100 nM recombinant 12-LOX enzyme/50 nM recombinant 15-LOX enzyme. Inhibitors (dissolved in DMSO) were plated at 1 μL into 96-well assay microplates followed by a 40 μL addition of a solution containing 12-LOX/15-LOX enzyme. Enzyme was pre-incubated with compounds for 15 mins. The assay was initiated by the addition of a 40 μL substrate solution containing AA/LA, and 20μL addition of a solution containing DHR123. […] Percent inhibition was calculated for each compound dose for IC50 curve fitting using 4 Parameter Logistic Model or Sigmoidal Dose-Response Model.

The mark [3] stands for this setting: 100 nM recombinant 12-LOX, 20 μM AA, DHR123 fluorescence, several values in a cell = repeat determinations, read-out: IC50 (μM) values for in vitro lipoxygenase inhibition, 12-LOX.

Where “and” joins values, the source holds several entries; their conditions need not be identical. Equal entries are not always repeated. Where two headings read alike, the source gives them in different places.

For `Cc1cc(Nc2ccc(F)cc2Cl)ccc1NCC1(Cn2cncn2)COC1` [SS20308-0272-01, N1-((3-((1H-1,2,4-triazol-1-yl)methyl)oxetan-3-yl)methyl)-N4-(2-chloro-4-fluorophenyl)-2-methylbenzene-1,4-diamine], the half-inhibitory concentration (IC50) is 0.22 µM and 0.28 µM and 0.11 µM and 0.26 µM in experiment [1]; 30 nM and 80 nM and 60 nM (2×) in experiment [2] (setting [3]).
For the compound `Clc1ccc(-c2ccc(Nc3ccccc3)cc2NCCn2cncn2)cc1` [SS20308-0147-01, N^2-(2-(1H-1,2,4-triazol-1-yl)ethyl)-4′-chloro-N^4-phenylbiphenyl-2,4-diamine], the IC50 in experiment [1] stood at 0.17 µM; in experiment [2] (setting [3]) it was 0.14 µM.
As for `Fc1ccc(Nc2ccc(NCCn3cncn3)cn2)cc1` [SS20308-0248-01, N^5-(2-(1H-1,2,4-triazol-1-yl)ethyl)-N^2-(4-fluorophenyl)pyridine-2,5-diamine], the values for the 50% inhibitory concentration (IC50) in experiment [1] and in experiment [2] (setting [3]) were 0.63 µM and 0.1 µM, respectively.
For `c1ccc(-c2ccc(NC3CCCCC3)cc2NCCn2cncn2)cc1` [SS20308-0200-01, N^2-(2-(1H-1,2,4-triazol-1-yl)ethyl)-N^4-cyclohexylbiphenyl-2,4-diamine] the same measures were 0.4 µM and 0.17 µM.
For `c1ccc(CNc2ccc(-c3ccccc3)c(NCCn3cncn3)c2)cc1` [SS20308-0096-01, N^2-(2-(1H-1,2,4-triazol-1-yl)ethyl)-N^4-benzyl-[1,1′-biphenyl]-2,4-diamine] the same measures were 0.55 µM and 0.24 µM.
As to `Fc1ccc(CNc2ccc(NCCCn3cncn3)c(F)c2)cc1` [SS20308-0236-01, N^1-(3-(1H-1,2,4-triazol-1-yl)propyl)-2-fluoro-N^4-(4-fluorobenzyl)benzene-1,4-diamine], the IC50 in experiment [1] is 0.1 µM and 0.18 µM; in experiment [2] (setting [3]), 0.04 µM and 0.03 µM.
In the case of `c1ccc(CNc2cnc(-c3ccccc3)c(NCCn3cncn3)c2)cc1` [SS20308-0219-01, N^3-(2-(1H-1,2,4-triazol-1-yl)ethyl)-N^5-benzyl-2-phenylpyridine-3,5-diamine], the IC50 in experiment [1] amounted to 4.78 µM; in experiment [2] (setting [3]) it was 2.68 µM.
For `Fc1ccc(Nc2ccc(NCC3(Cn4cncn4)COC3)c(C(F)(F)F)c2)c(Cl)c1` [SS20308-0279-01, N^1-((3-((1H-1,2,4-triazol-1-yl)methyl)oxetan-3-yl)methyl)-N^4-(2-chloro-4-fluorophenyl)-2-(trifluoromethyl)benzene-1,4-diamine] the same measures were 0.64 µM and 0.28 µM.
For `Fc1ccc(CNc2cccc(NCCn3cncn3)n2)cc1` [SS20308-0249-01, N^2-(2-(1H-1,2,4-triazol-1-yl)ethyl)-N^6-(4-fluorobenzyl)pyridine-2,6-diamine] the same measures were 1.59 µM and 0.37 µM.
Take `Cc1ccc(NCc2ccc(F)cc2)cc1NCCCn1cncn1` [SS20308-0237-01, N^3-(3-(1H-1,2,4-triazol-1-yl)propyl)-N^1-(4-fluorobenzyl)-4-methylbenzene-1,3-diamine]: the IC50 in experiment [1] turned out to be 0.28 µM; in experiment [2] (setting [3]), 0.18 µM.
For `c1ccc(CNc2ccc(NCCn3cncn3)c(-c3ccccc3)n2)cc1` [SS20308-0214-01, N^5-(2-(1H-1,2,4-triazol-1-yl)ethyl)-N^2-benzyl-6-phenylpyridine-2,5-diamine] the same measures were 0.16 µM and 0.05 µM.
As for `Fc1ccc(Nc2ccc(NCCn3cncn3)c(-c3ccccc3)c2)c(Cl)c1` [SS20308-0165-01, N^2-(2-(1H-1,2,4-triazol-1-yl)ethyl)-N^5-(2-chloro-4-fluorophenyl)biphenyl-2,5-diamine], the 50% inhibitory concentration (IC50) in experiment [1] was 0.03 µM and 0.23 µM; in experiment [2] it was 0.08 µM and 0.06 µM.
Turning to `COc1ccccc1-c1ccc(Nc2ccccc2)cc1NCCn1cncn1` [SS20308-0144-01, N^2-(2-(1H-1,2,4-triazol-1-yl)ethyl)-2′-methoxy-N^4-phenylbiphenyl-2,4-diamine], the values for the IC50 in experiment [1] and in experiment [2] (setting [3]) were 0.4 µM and 0.18 µM, respectively.
Regarding `CCOC(=O)c1ccc(Nc2cccc(Nc3ccccc3)c2OCCn2cncn2)cc1` [SS20308-0055-01, ethyl 4-(2-(2-(1H-1,2,4-triazol-1-yl)ethoxy)-3-(phenylamino)phenylamino)benzoate], the IC50 in experiment [1] stood at 3.33 µM; in experiment [2] (setting [3]), 1.64 µM.
`CN(C)CCCc1c(NCc2ccc(F)cc2)cccc1-c1cccc2c1NCC2` [SS20308-0253-01, 2-(3-(dimethylamino)propyl)-N-(4-fluorobenzyl)-3-(indolin-7-yl)aniline]: the IC50 in experiment [1] stood at 0.31 µM; in experiment [2] (setting [3]), 0.29 µM.
Regarding `Cn1cc(-c2ccc(Nc3ccccc3)cc2NCCn2cncn2)cn1` [SS20308-0191-01, N^3-(2-(1H-1,2,4-triazol-1-yl)ethyl)-4-(1-methyl-1H-pyrazol-4-yl)-N^1-phenylbenzene-1,3-diamine], the IC50 in experiment [1] worked out at 4.18 µM; in experiment [2], 1.96 µM.
Consider `c1ccc(Nc2ccc(-c3cccc4c3NCC4)c(NCCn3cncn3)c2)cc1` [SS20308-0166-01, N^3-(2-(1H-1,2,4-triazol-1-yl)ethyl)-4-(indolin-7-yl)-N^1-phenylbenzene-1,3-diamine], for which the IC50 in experiment [1] was determined as 0.14 µM; in experiment [2] (setting [3]) it was 0.07 µM.
For `CN(C)CCOc1c(NCc2ccccc2)cccc1Nc1ncccc1Cl` [SS20308-0071-01, N^1-benzyl-N^3-(3-chloropyridin-2-yl)-2-(2-(dimethylamino)ethoxy)benzene-1,3-diamine] the same measures were 5.73 µM and 4.9 µM.
Consider `CCOC(=O)c1ccc(Nc2ccccc2OCCn2cncn2)cc1` [SS20308-0033-01, ethyl 4-(2-(2-(1H-1,2,4-triazol-1-yl)ethoxy)phenylamino)benzoate], for which the IC50 in experiment [1] came out at 50.3 µM; in experiment [2] (setting [3]), 23.9 µM.
As to `c1ncn(CC2(CNc3ccc(NCC4CCCCC4)cc3)COC2)n1` [SS20308-0242-01, N^1-((3-((1H-1,2,4-triazol-1-yl)methyl)oxetan-3-yl)methyl)-N^4-(cyclohexylmethyl)benzene-1,4-diamine], the IC50 in experiment [1] worked out at 0.09 µM; in experiment [2] (setting [3]), 0.05 µM.
Regarding `Cc1noc(C)c1-c1ccc(Nc2ccccc2)cc1NCCn1cncn1` [SS20308-0192-01, N^3-(2-(1H-1,2,4-triazol-1-yl)ethyl)-4-(3,5-dimethylisoxazol-4-yl)-N^1-phenylbenzene-1,3-diamine], the IC50 in experiment [1] is 0.83 µM; in experiment [2] (setting [3]) it was 0.59 µM.
The like results for `OCc1ccccc1-c1ccc(Nc2ccccc2)cc1NCCn1cncn1` [SS20308-0143-01, (2′-(2-(1H-1,2,4-triazol-1-yl)ethylamino)-4′-(phenylamino)biphenyl-2-yl)methanol] were, in that order, 0.94 µM and 0.33 µM.
For the compound `FC1(F)CCC(CNc2ccc(NCCn3cncn3)cn2)CC1` [SS20308-0247-01, N^5-(2-(1H-1,2,4-triazol-1-yl)ethyl)-N^2-((4,4-difluorocyclohexyl)methyl)pyridine-2,5-diamine], the 50% inhibitory concentration (IC50) in experiment [1] came to 0.63 µM; in experiment [2] (setting [3]), 0.13 µM.
